Measurements: article PMC10261008, “A peptide triple agonist of GLP-1, neuropeptide Y1, and neuropeptide Y2 receptors promotes glycemic control and weight loss” (Scientific Reports, 2023)
Square brackets hold non-standard residues; d marks the D form. Ends that are not written are not given here.

Key:
human GLP-1R [1] = target: T1, human GLP-1R (Homo sapiens, UniProt P43220); assay: cAMP FRET agonism at GLP-1R in H188-GLP-1R transduced HEK293 cells; assay type: cell-based; conditions: FRET ratio tracking cAMP, Fig. 1A
T1 sequence (P43220 24-463): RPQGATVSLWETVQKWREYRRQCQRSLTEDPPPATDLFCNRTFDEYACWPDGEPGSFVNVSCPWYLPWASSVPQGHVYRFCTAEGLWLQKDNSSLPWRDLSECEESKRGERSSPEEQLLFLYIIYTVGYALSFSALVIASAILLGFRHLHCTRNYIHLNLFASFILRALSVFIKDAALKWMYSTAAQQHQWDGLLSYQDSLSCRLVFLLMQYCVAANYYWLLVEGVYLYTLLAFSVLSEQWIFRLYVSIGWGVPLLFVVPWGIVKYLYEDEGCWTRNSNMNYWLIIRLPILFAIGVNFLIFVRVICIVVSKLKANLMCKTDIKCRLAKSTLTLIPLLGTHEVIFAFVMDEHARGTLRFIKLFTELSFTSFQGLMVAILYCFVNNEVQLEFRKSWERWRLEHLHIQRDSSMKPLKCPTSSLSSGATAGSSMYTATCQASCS
Experimental: H188 virally transduced HEK293 cells stably expressing human GLP-1R were obtained from Novo Nordisk A/S for use in FRET assays. HEK293 C24 cells stably expressing the H188 FRET reporter were obtained by G418 selection and grown in monolayers to ∼70% confluency in 100 cm^2 tissue culture dishes and were then transfected with plasmids (11 μg/dish) encoding human GLP-1R, human Y2-R, or human Y1-R. Transfected cells were then incubated for 48 h in fresh culture media. For real-time FRET kinetic assays, cells were harvested, resuspended in 21 mL of SES buffer, and plated at 196 μL per well. […] Y1-R and Y2-R agonism to stimulate Gi proteins and to inhibit adenylyl cyclase was monitored by detecting the ability of PYY peptides, GEP44, or GEP12 to counteract the ability of Adenosine (acting through endogenous A2B receptor and Gs proteins) to increase levels of cAMP. For these assays, increased levels of cAMP were measured as an increase of the 485/535 nm FRET ratio serving as a readout for binding of cAMP to the H188 biosensor that is based on the exchange protein activated by cAMP[15].

human GLP-1R [2] = target: T1, human GLP-1R; assay: SPR binding to His-tagged GLP-1R on NTA sensor; conditions: in-house SPR, 0.1–100 nM, duplicate
DIO Wistar rats = assay: Dose escalation study of food intake and tolerability in diet-induced obese male rats; assay type: in vivo, rat; conditions: s.c. once daily
Experimental: Wistar rats purchased from Charles River Laboratories (Wilmington, MA) were used in this study. The rats were provided with ad libitum access to food and water and were kept on a 12 h light/12 h dark cycle. For all other experiments, male rats (51–75 g; approximately 4 weeks of age) were fed a diet with 60% of the calories provided by fat (D12492; Research Diets, Inc; New Brunswick, NJ; 5.21 kcal/g) for approximately five months before the start of the study generate diet-induced obesity (DIO). Animals were individually housed in a temperature (22 ± 1 °C) and humidity-controlled (57 ± 4%) room. All body weight measurements were taken just before the start of the dark cycle.
GEP44 stock solutions were prepared using sterile ultra-pure H2O and gently agitated at 4 °C for > 24 h and then aliquoted and stored at − 20 °C. […] GEP12 (aliquots up to 5 mg) was dissolved in 100 µL DMSO and mixed at 1000 rpm for three min to create a stock solution. Stock solutions were diluted to working solutions in 0.9% normal saline, resulting in a final DMSO concentration of < 2%. […]
Rats were singly housed in BioDAQ cages and allowed to acclimate for at least 10 days before the start of this study. […] Body weight was assessed daily just before the start of the dark cycle. Food and water were available ad libitum and consumption was monitored continuously.

human GLP-1R [3] = target: T1, human GLP-1R; assay: β-arrestin-2 recruitment at GLP-1R; assay type: cell-based; conditions: dose–response 5.51 pM–551 nM, duplicate
human GLP-1R [4] = target: T1, human GLP-1R; assay: Agonist-activated internalization of GLP-1R; assay type: cell-based; conditions: dose–response 30 pM–1 µM, duplicate
Experimental: Human GLP-1R (Gs-coupled) cell-based agonist-activated internalization assays were performed by Eurofins Discovery.

human Y2-R [5] = target: T2, human Y2-R (Homo sapiens, UniProt P49146); assay: Radioligand competitive binding assay at Y2-R in CHO-K1 cells; conditions: 1 pM–1 µM, duplicate independent runs, read-out: half-maximal binding at Y2-R
T2 sequence (P49146 1-381): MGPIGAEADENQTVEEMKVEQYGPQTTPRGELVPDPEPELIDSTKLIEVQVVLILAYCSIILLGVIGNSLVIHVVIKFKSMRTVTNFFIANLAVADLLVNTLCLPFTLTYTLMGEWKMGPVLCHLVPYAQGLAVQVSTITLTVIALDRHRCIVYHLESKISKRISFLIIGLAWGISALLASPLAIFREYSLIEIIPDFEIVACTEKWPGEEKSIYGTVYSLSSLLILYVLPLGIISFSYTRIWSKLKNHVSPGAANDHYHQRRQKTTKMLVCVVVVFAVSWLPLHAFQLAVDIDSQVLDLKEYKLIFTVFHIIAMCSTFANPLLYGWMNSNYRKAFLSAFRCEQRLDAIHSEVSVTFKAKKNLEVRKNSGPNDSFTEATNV

human Y1-R = target: T3, human Y1-R (Homo sapiens, UniProt P25929); assay: SPR binding at Y1-R; conditions: in-house SPR, 4 pM–19 µM; read-out: half-maximal binding at Y1-R
T3 construct: His tag; purchased antibodies-online Inc. ABIN7086253
T3 sequence (P25929 1-384): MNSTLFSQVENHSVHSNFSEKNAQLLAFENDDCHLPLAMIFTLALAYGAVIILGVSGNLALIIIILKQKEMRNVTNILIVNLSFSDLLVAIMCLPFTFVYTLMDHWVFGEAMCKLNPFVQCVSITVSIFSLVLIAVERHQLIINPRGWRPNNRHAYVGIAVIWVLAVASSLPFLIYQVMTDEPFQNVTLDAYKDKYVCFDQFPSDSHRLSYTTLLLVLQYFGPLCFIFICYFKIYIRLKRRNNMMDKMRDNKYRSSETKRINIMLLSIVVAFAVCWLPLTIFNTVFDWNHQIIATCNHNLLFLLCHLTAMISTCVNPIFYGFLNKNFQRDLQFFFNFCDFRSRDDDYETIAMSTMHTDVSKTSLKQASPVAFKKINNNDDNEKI
Experimental: Peptides were precipitated with cold (4 °C) diethyl ether and purified on an Agilent 1200 series High-Performance Liquid Chromatography (HPLC) instrument (10–75% HPLC-grade acetonitrile for 20 min at a 2 mL/min flow rate over an Agilent Zorbax C18 column (5 µm, 9.4 × 250 mm) tracked at 220, 254, and 280 nm. Peptides were purified to > 95%. Peptide binding was assayed by EuroscreenFast (Gosselies, Belgium) or in-house with a Nicoya Open Surface Plasmon Resonance (SPR) instrument. Internalization and β-arrestin recruitment assays were performed by Eurofins Discovery (Fremont, CA, USA).
Peptide binding to human Y1-R was performed in-house by SPR.

human Y2-R [6] = target: T2, human Y2-R; assay: Y2-R agonism: counteraction of adenosine-stimulated cAMP (FRET) in HEK293 C24 cells transfected with Y2-R; assay type: cell-based; conditions: HEK293 C24 cells transiently transfected with Y2-R, 20 min pre-treatment; also reported previously [16]; read-out: IC50, inhibition of adenosine-stimulated cAMP production at Y2-R
Experimental: H188 virally transduced HEK293 cells stably expressing human GLP-1R were obtained from Novo Nordisk A/S for use in FRET assays. HEK293 C24 cells stably expressing the H188 FRET reporter were obtained by G418 selection and grown in monolayers to ∼70% confluency in 100 cm^2 tissue culture dishes and were then transfected with plasmids (11 μg/dish) encoding human GLP-1R, human Y2-R, or human Y1-R. Transfected cells were then incubated for 48 h in fresh culture media. For real-time FRET kinetic assays, cells were harvested, resuspended in 21 mL of SES buffer, and plated at 196 μL per well. Plated cells were pretreated with 4 μL of agonist, or antagonist (Ex9-39 (GLP-1R antagonist) or BIIE0246 (Y2-R antagonist)), at a given target concentration and incubated for 20 min before performing the assay. Y1-R and Y2-R agonism to stimulate Gi proteins and to inhibit adenylyl cyclase was monitored by detecting the ability of PYY peptides, GEP44, or GEP12 to counteract the ability of Adenosine (acting through endogenous A2B receptor and Gs proteins) to increase levels of cAMP. For these assays, increased levels of cAMP were measured as an increase of the 485/535 nm FRET ratio serving as a readout for binding of cAMP to the H188 biosensor that is based on the exchange protein activated by cAMP[15].

[7] = system: lean and diet-induced obese (DIO) rats; parameters: method as in PMID 33449689; conditions: rat, in vivo; cited from earlier work
patients = conditions: cited from earlier work

## F[dS]QGTFTSDLSKYLEEEAVREFIAWLKNGGPSRHYLNLVTRQRY-NH2 [GEP12]
Human GLP-1R [1]
  EC50: 17.3 nM
Human GLP-1R [2]
  IC50: 19.2 nM

## H[dS]QGTFTSDLSKYLEEEAVREFIAWLKNGGPSRHYLNLVTRQRY-NH2 [GEP44]
DIO Wistar rats
  no observed adverse effect level (NOAEL): 20 nmol/kg/day
Human GLP-1R [3]
  EC50: 1.59 nM
Human GLP-1R [4]
  EC50: 3.97 nM
Human Y2-R [5]
  IC50: 65.8 nM
Human Y1-R
  IC50: 86.6 nM
Human Y2-R [6]
  IC50: 34 nM
[7]
  visceral malaise: no visceral malaise

## tirzepatide
patients; 10 or 15 mg per week
  patients achieving a weight loss of 20% and more: at least 50%
patients; human, in vivo
  diarrhea, incidence: 15–17%
  discontinuation of treatment due to gastrointestinal symptoms: 3–7%
  nausea, incidence: 12–24%
  vomiting, incidence: 6–10%
